Reference: patent publication US20100197588A1, “USE OF A PEPTIDE AS A THERAPEUTIC AGENT” (priority 2007, published 2010)
Where no end group is shown, it is not given here.

Key:
[1] = tested on: HIV-1IIIB; experiment: HIV-1 antiviral assay in CEM-SS cells (MTS readout)
[2] = tested on: HCMV strain AD169; experiment: HCMV plaque formation assay in MRC-5 cells
[3] = tested on: hepatitis B virus (HBV) ayw strain; experiment: HBV experimental assay system, secreted HBV DNA by TaqMan PCR in HepG2-2.2.15 cells; type: cell-based; conditions: 10 micrograms per ml, six days
Text: HepG2-2.2.15 is a stable cell line containing the hepatitis B virus (HBV) ayw strain genome (ATCC Cat. No. CRL-11997). Antiviral compounds blocking any late step of viral replication such as transcription, translation, pregenome encapsidation, reverse transcription, particle assembly and release can be identified and characterized using this cell line. In this assay, an active compound will reduce the production of secreted HBV from cells, measured by utilizing real time quantitative PCR (TaqMan) assay to directly and accurately measure HBV DNA copies.
HepG2-2.2.15 cells were plated in 96-well microtiter plates. After 16-24 hours the confluent monolayer of HepG2-2.2.15 cells was washed and the medium was replaced with complete medium containing test peptides—10 micrograms per ml—in duplicate. […] Six days following the initial administration of the peptides, the cell culture supernatants was collected, treated with pronase and DNAse and then used in a real-time quantitative TaqMan PCR assay. The PCR-amplified HBV DNA was detected in real-time by monitoring increases in fluorescence signals that result from the exonucleolytic degradation of a quenched fluorescence probe molecule that hybridizes to the amplified HBV DNA. […] Antiviral activity was calculated from the reduction in HBV DNA levels (% virus control). […]

[4] = tested on: Primary Human endothelial cells (HUVEC); experiment: Endothelial cell migration assay; conditions: 10 micrograms per ml, 22 hours
Method: Primary Human endothelial cells (HUVEC) were seeded in insert chambers with 3 micrometer pore size of multi-transwell plate for 6 hours at 37° C. in Endothelial Cell Basal Medium (EBM) supplemented with 0.1% bovine serum albumin. Thereafter, designated concentration of testing peptides—10 micrograms per ml—was added in duplicate wells. The endothelia were allowed to migrate for 22 hours at 37° C., then, migrated cells were fixed and stained with Hoechst 33342 dye. Images of 3 fields per insert were taken and the number of migrated cells per field were quantified using the ImageProPlus software. Data were analyzed for the average number of the migrated cells and standard deviation of six data points for each treatment condition. […] Statistic p values were computed using the Student's t-test.

[5] = tested on: HUVEC; experiment: Endothelial tube formation assay; conditions: 10 micrograms per ml, 20 hours, combination peptide 1:peptide 2 0.95 mole:1.05 mole
Method: The endothelial tube formation assay is based on the ability of endothelial cells to form three-dimensional capillary-like tubular structures when cultured on a gel of basement membrane extract. […] Pre-labeled HUVEC with Calcein AM were seeded in a 96-well culture plate coated with extracellular metrix (Chemicon international Cat. ECM625) and treated with test peptides—10 micrograms per ml—in full growth medium. Positive control was vehicle only. The endothelial cells were allowed to form tubes for 20 hours and were then examined under an inverted fluorescent microscope. Duplicate wells for each treatment were photographed and quantitatively analyzed for an average tubule length using image analysis software ImageProPlus. Raw data were expressed as average tubule lengths in pixels ±standard deviation. Statistic p values were computed using the Student's t-test.

[6] = tested on: Interleukin-2 (IL-2); experiment: Th1/Th2 cytokine profiling assay, IL-2; conditions: 10 micrograms per ml; Ovalbumin-restimulated Balb/c spleen cells, 72 hours
Text: (§1) The Balb/c mice (originated in 1923, it is a popular strain and is used in many different research disciplines. Also classified as an inbred from the production of 20 or more successive brother-sister matings, the Balb/c mouse is albino and small in size) were immunized on Days 1, 15, and 29 with Ovalbumin (Ovalbumin is the main protein found in egg white, commonly used to stimulate an immunological reaction in test animals) in PBS (5 micrograms/injection). On day 50, spleens of the mice were harvested (3 weeks after last boost with Ovalbumin). […] Thereafter, additional Ovalbumin was added to the cells at 10 micrograms/ml for in vitro restimulation of the cells. 72 hours later, cell supernatants were harvested and assayed using the Becton Dickinson Mouse Th1/Th2 Cytokine CBA Kit. This kit can be used to measure Interleukin-2 (IL-2), Interleukin-4 (IL-4), Interleukin-5 (IL-5), Interferon-γ (IFN-γ), and Tumor Necrosis Factor-α (TNF-α) protein levels in a single sample.

[7] = tested on: Interleukin-4 (IL-4); experiment: Th1/Th2 cytokine profiling assay, IL-4; conditions: 10 micrograms per ml; Ovalbumin-restimulated Balb/c spleen cells, 72 hours
Text: as §1

[8] = tested on: Interleukin-5 (IL-5); experiment: Th1/Th2 cytokine profiling assay, IL-5; conditions: 10 micrograms per ml; Ovalbumin-restimulated Balb/c spleen cells, 72 hours
Text: as §1

[9] = tested on: Tumor Necrosis Factor-α (TNF-α); experiment: Th1/Th2 cytokine profiling assay, TNF-α; conditions: 10 micrograms per ml; Ovalbumin-restimulated Balb/c spleen cells, 72 hours
Text: (§2) The Balb/c mice (originated in 1923, it is a popular strain and is used in many different research disciplines. Also classified as an inbred from the production of 20 or more successive brother-sister matings, the Balb/c mouse is albino and small in size) were immunized on Days 1, 15, and 29 with Ovalbumin (Ovalbumin is the main protein found in egg white, commonly used to stimulate an immunological reaction in test animals) in PBS (5 micrograms/injection). On day 50, spleens of the mice were harvested (3 weeks after last boost with Ovalbumin). […] Thereafter, additional Ovalbumin was added to the cells at 10 micrograms/ml for in vitro restimulation of the cells. 72 hours later, cell supernatants were harvested and assayed using the Becton Dickinson Mouse Th1/Th2 Cytokine CBA Kit. This kit can be used to measure Interleukin-2 (IL-2), Interleukin-4 (IL-4), Interleukin-5 (IL-5), Interferon-γ (IFN-γ), and Tumor Necrosis Factor-α (TNF-α) protein levels in a single sample. The kit performance has been optimized for analysis of physiologically relevant concentrations (μg/ml levels) of specific cytokine proteins in tissue culture supernatants and serum samples.

[10] = tested on: Interferon-γ (IFN-γ); experiment: Th1/Th2 cytokine profiling assay, IFN-γ; conditions: 10 micrograms per ml; Ovalbumin-restimulated Balb/c spleen cells, 72 hours
Text: as §2

[11] = tested on: A549 cells; experiment: Apoptosis prevention assay (C2 ceramide, Annexin-5); conditions: 10 micrograms per ml, 30 min pretreatment, then C2 ceramide, combination 0.95 mole peptide 1 and 1.05 mole peptide 2
Method: Human A549 cells (carcinomic human alveolar basal epithelial cells) were utilized in the experiments employing the Annexin-5 apoptosis assay. […] A549 cells were pretreated for 30 min with test peptides—10 micrograms per ml—followed by the exposure to C2 ceramide.

[12] = tested on: Human Peripheral Blood Mononuclear Cells (PBMC), B cell proliferation; experiment: B cell proliferation assay (SAC plus Interleukin-2 stimulated PBMC, 3H-thymidine); conditions: 10 micrograms per ml, 3 days
Method: Human Peripheral Blood Mononuclear Cells (PBMC) were obtained from normal human donors. The B cell proliferation was induced by stimulation of the cells with the B cell mitogen Staphylococcus aureus Cowans I (SAC) plus Interleukin-2, either in the absence (positive proliferation control), or in the presence of test peptides—10 micrograms per ml—to examine their effects on the B cell response. 10^5/well PBMC were plated in 96-well microtiter plates and assayed in duplicate with the peptides. […] At the end of incubation time, the plates were harvested and the cells counted by liquid scintillation for the incorporation of ^3H-thymidine as a measure of B cell proliferation.

Compound	antiviral activity of positive control compounds (HIV-1) [1]	antiviral activity of positive control compound (HCMV) [2]	inhibition of HBV replication as compared to the virus control infection [3]	induction of the migration of endothelial cells [4]	induction of the tube formation of human endothelial cells [5]	IL-2 spleen cells (% of control) [6]	IL-4 spleen cells; TH2 response (% of control) [7]	IL-5 spleen cells; TH2 response (% of control) [8]	TNF-a spleen cells; TH1 response (% of control) [9]	IFNγ spleen cells; TH1 response (% of control) [10]	induction of the ceramide-induced apoptosis on human lung cells [11]	induction of the proliferation of specifically stimulated human B-cells [12]	inhibition of the migration of endothelial cells ([4]; combination peptide 1:peptide 2 0.95 mole:1.05 mole)
Cc1cn([C@H]2C[C@H](N=[N+]=[N-])[C@@H](CO)O2)c(=O)[nH]c1=O [AZT]	expected levels of antiviral activity												
Nc1nc(O)c2ncn(COC(CO)CO)c2n1 [Ganciclovir]		expected levels of antiviral activity											
CC(C)(C)NC(=O)[C@@H]1CN(Cc2cccnc2)CCN1C[C@@H](O)C[C@@H](Cc1ccccc1)C(=O)N[C@H]1c2ccccc2C[C@H]1O [indinavir]	expected levels of antiviral activity												
Ac-Met-Trp-Asp-Phe-Asp-Asp-Leu-Asn-Phe-Thr-Gly-Met-Pro-Pro-Ala-Asp-Glu-Asp-Tyr-Ser-Pro-NH2 (Ac-MWDFDDLNFTGMPPADEDYSP-NH2) [peptide 2]			no effect	9%	32%	63.0 % of control	136.3 % of control	59.3 % of control	90.3 % of control	59.2 % of control	19.65%	does not show any induction	
His-Ser-Asp-Gly-Ile-Phe-Thr-Asp-Ser-Tyr-Ser-Arg-Tyr-Arg-Lys-Gln-Met-Ala-Val-Lys-Lys-Tyr-Leu-Ala-Ala-Val-Leu-Gly-Lys-Arg-Tyr-Lys-Gln-Arg-Val-Lys-Asn-Lys-NH2 (HSDGIFTDSYSRYRKQMAVKKYLAAVLGKRYKQRVKNK-NH2) [peptide 1]			48.0%		36%	0.0 % of control	120.1 % of control	63.0 % of control	94.0 % of control	60.8 % of control	did not induce	23.3%	6%
